#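 Five compound concentrations were applied to cells in 96-well plates for 48 hours; endpoints were derived by simple linear interpolation of the resulting dose-response curve. Here, GI50 denotes the concentration required for 50% inhibition of growth. TGI: total growth inhibition.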
# Legend:
# Assay in all cases: NCI anticancer screen, dose series, 48 h
# 786-0 renal = system: 786-0 renal
# A498 renal = system: A498 renal
# A549 NSCLC = system: A549 NSCLC
# ACHN renal = system: ACHN renal
# BT-549 breast = system: BT-549 breast
# CAKI-1 renal = system: CAKI-1 renal
# CCRF-CEM leukemia = system: CCRF-CEM leukemia
# COLO 205 colon = system: COLO 205 colon
# DU-145 prostate = system: DU-145 prostate
# EKVX NSCLC = system: EKVX NSCLC
# HCC-2998 colon = system: HCC-2998 colon
# HCT-15 colon = system: HCT-15 colon
# HL-60(TB) leukemia = system: HL-60(TB) leukemia
# HOP-62 NSCLC = system: HOP-62 NSCLC
# HOP-92 NSCLC = system: HOP-92 NSCLC
# HS 578T breast = system: HS 578T breast
# HT29 colon = system: HT29 colon
# IGROV1 ovarian = system: IGROV1 ovarian
# K-562 leukemia = system: K-562 leukemia
# KM12 colon = system: KM12 colon
# LOX IMVI melanoma = system: LOX IMVI melanoma
# M14 melanoma = system: M14 melanoma
# MALME-3M melanoma = system: MALME-3M melanoma
# MCF7 breast = system: MCF7 breast
# MDA-MB-231 breast = system: MDA-MB-231 breast
# MDA-MB-435 = system: MDA-MB-435
# MDA-MB-468 breast = system: MDA-MB-468 breast
# MOLT-4 leukemia = system: MOLT-4 leukemia
# NCI-H226 lung = system: NCI-H226 lung
# NCI-H23 lung = system: NCI-H23 lung
# NCI-H460 lung = system: NCI-H460 lung
# NCI-H522 lung = system: NCI-H522 lung
# OVCAR-3 ovarian = system: OVCAR-3 ovarian
# OVCAR-4 ovarian = system: OVCAR-4 ovarian
# OVCAR-5 ovarian = system: OVCAR-5 ovarian
# OVCAR-8 ovarian = system: OVCAR-8 ovarian
# PC-3 prostate = system: PC-3 prostate
# RPMI-8226 leukemia = system: RPMI-8226 leukemia
# RXF 393 renal = system: RXF 393 renal
# SF-268 CNS = system: SF-268 CNS
# SF-295 CNS = system: SF-295 CNS
# SF-539 CNS = system: SF-539 CNS
# SK-MEL-2 melanoma = system: SK-MEL-2 melanoma
# SK-MEL-28 melanoma = system: SK-MEL-28 melanoma
# SK-MEL-5 melanoma = system: SK-MEL-5 melanoma
# SK-OV-3 ovarian = system: SK-OV-3 ovarian
# SN12C renal = system: SN12C renal
# SNB-19 CNS = system: SNB-19 CNS
# SNB-75 CNS = system: SNB-75 CNS
# SR leukemia = system: SR leukemia
# T-47D breast = system: T-47D breast
# TK-10 renal = system: TK-10 renal
# U251 CNS = system: U251 CNS
# UACC-257 melanoma = system: UACC-257 melanoma
# UACC-62 melanoma = system: UACC-62 melanoma
# UO-31 renal = system: UO-31 renal
structure (smiles),measurement,setting,value
C=C1CCC2C3(C)COC(c4ccccc4F)OC3CCC2(C)C1C/C=C1/C(=O)OCC1O (configuration not stated),GI50,786-0 renal,2.02 µM
same,TGI,786-0 renal,3.69 µM
same,GI50,A498 renal,20.1 µM
same,TGI,A498 renal,37.3 µM
same,GI50,A549 NSCLC,4.4 µM
same,TGI,A549 NSCLC,94 µM
same,GI50,ACHN renal,1.85 µM
same,TGI,ACHN renal,3.34 µM
same,GI50,BT-549 breast,2.6 µM
same,TGI,BT-549 breast,5.76 µM
same,GI50,CAKI-1 renal,3.84 µM
same,TGI,CAKI-1 renal,13.3 µM
same,GI50,CCRF-CEM leukemia,1.81 µM
same,TGI,CCRF-CEM leukemia,6.53 µM
same,GI50,COLO 205 colon,2.96 µM
same,TGI,COLO 205 colon,8.38 µM
same,GI50,DU-145 prostate,4.09 µM
same,TGI,DU-145 prostate,15.1 µM
same,GI50,EKVX NSCLC,15.4 µM
same,TGI,EKVX NSCLC,30.3 µM
same,GI50,HCC-2998 colon,5.12 µM
same,TGI,HCC-2998 colon,17.8 µM
same,GI50,HCT-15 colon,1.85 µM
same,TGI,HCT-15 colon,4.52 µM
same,GI50,HL-60(TB) leukemia,1.65 µM
same,TGI,HL-60(TB) leukemia,5.48 µM
same,GI50,HOP-62 NSCLC,15.8 µM
same,TGI,HOP-62 NSCLC,35.1 µM
same,GI50,HOP-92 NSCLC,3.65 µM
same,TGI,HOP-92 NSCLC,14.6 µM
same,GI50,HS 578T breast,4.4 µM
same,TGI,HS 578T breast,47.9 µM
same,GI50,HT29 colon,1.9 µM
same,TGI,HT29 colon,3.85 µM
same,GI50,IGROV1 ovarian,5.66 µM
same,TGI,IGROV1 ovarian,19.7 µM
same,GI50,K-562 leukemia,3.04 µM
same,TGI,K-562 leukemia,> 100 µM
same,GI50,KM12 colon,2.99 µM
same,TGI,KM12 colon,10.3 µM
same,GI50,LOX IMVI melanoma,1.57 µM
same,TGI,LOX IMVI melanoma,2.92 µM
same,GI50,M14 melanoma,4.24 µM
same,TGI,M14 melanoma,19.2 µM
same,GI50,MALME-3M melanoma,7.35 µM
same,TGI,MALME-3M melanoma,21.8 µM
same,GI50,MCF7 breast,1.83 µM
same,TGI,MCF7 breast,5.45 µM
same,GI50,MDA-MB-231 breast,2.41 µM
same,TGI,MDA-MB-231 breast,5.41 µM
same,GI50,MDA-MB-435,2.25 µM
same,TGI,MDA-MB-435,5.79 µM
same,GI50,MDA-MB-468 breast,1.62 µM
same,TGI,MDA-MB-468 breast,3.63 µM
same,GI50,MOLT-4 leukemia,3.31 µM
same,TGI,MOLT-4 leukemia,17.2 µM
same,GI50,NCI-H226 lung,1.67 µM
same,TGI,NCI-H226 lung,3.3 µM
same,GI50,NCI-H23 lung,10.8 µM
same,TGI,NCI-H23 lung,26 µM
same,GI50,NCI-H460 lung,3.36 µM
same,TGI,NCI-H460 lung,> 100 µM
same,GI50,NCI-H522 lung,1.57 µM
same,TGI,NCI-H522 lung,3.12 µM
same,GI50,OVCAR-3 ovarian,1.8 µM
same,TGI,OVCAR-3 ovarian,3.7 µM
same,GI50,OVCAR-4 ovarian,2.45 µM
same,TGI,OVCAR-4 ovarian,7.65 µM
same,GI50,OVCAR-5 ovarian,2.47 µM
same,TGI,OVCAR-5 ovarian,5.78 µM
same,GI50,OVCAR-8 ovarian,1.98 µM
same,TGI,OVCAR-8 ovarian,5.53 µM
same,GI50,PC-3 prostate,3.45 µM
same,TGI,PC-3 prostate,14.6 µM
same,GI50,RPMI-8226 leukemia,2.6 µM
same,TGI,RPMI-8226 leukemia,7.35 µM
same,GI50,RXF 393 renal,3 µM
same,TGI,RXF 393 renal,12.2 µM
same,GI50,SF-268 CNS,3.85 µM
same,TGI,SF-268 CNS,16.4 µM
same,GI50,SF-295 CNS,2.13 µM
same,TGI,SF-295 CNS,5.24 µM
same,GI50,SF-539 CNS,1.94 µM
same,TGI,SF-539 CNS,3.52 µM
same,GI50,SK-MEL-2 melanoma,2.67 µM
same,TGI,SK-MEL-2 melanoma,7.79 µM
same,GI50,SK-MEL-28 melanoma,2.92 µM
same,TGI,SK-MEL-28 melanoma,7.63 µM
same,GI50,SK-MEL-5 melanoma,5.67 µM
same,TGI,SK-MEL-5 melanoma,18.2 µM
same,GI50,SK-OV-3 ovarian,18.6 µM
same,TGI,SK-OV-3 ovarian,35.4 µM
same,GI50,SN12C renal,1.99 µM
same,TGI,SN12C renal,4.49 µM
same,GI50,SNB-19 CNS,11.5 µM
same,TGI,SNB-19 CNS,26.8 µM
same,GI50,SNB-75 CNS,2.82 µM
same,TGI,SNB-75 CNS,12.8 µM
same,GI50,SR leukemia,2.5 µM
same,TGI,SR leukemia,19.9 µM
same,GI50,T-47D breast,3.76 µM
same,TGI,T-47D breast,16.9 µM
same,GI50,TK-10 renal,8.18 µM
same,TGI,TK-10 renal,22.2 µM
same,GI50,U251 CNS,1.96 µM
same,TGI,U251 CNS,3.97 µM
same,GI50,UACC-257 melanoma,2.36 µM
same,TGI,UACC-257 melanoma,13.2 µM
same,GI50,UACC-62 melanoma,3.17 µM
same,TGI,UACC-62 melanoma,12.1 µM
same,GI50,UO-31 renal,1.97 µM
same,TGI,UO-31 renal,5.54 µM

# From PubChem BioAssay (NCI)
